Test results taken from ChEMBL document CHEMBL5338766, “X-ray Crystal Structure-Guided Discovery of Novel Indole Analogues as Colchicine-Binding Site Tubulin Inhibitors with Immune-Potentiating and Antitumor Effects against Melanoma” (J Med Chem, 2023).
Activity calls are given as the source filed them. The calls are words filed in the database; no cut-off is given here.

What was measured:
[1] = test system: HepG2; assay: Induction of apoptosis in human HepG2 cells assessed as necrotic cells at 5 nM incubated for 48 hrs by Annexin V-FITC/PI staining based flow cytometric analysis (reference value: 0.443%); type: functional
[2] = test system: HepG2; assay: Antimigratory activity in human HepG2 cells assessed as reduction in recovery area at 1 nM incubated for 24 hrs by wound healing assay (reference value: 65.84%); type: functional; set-up: scale not given: the % may be the effect or the level left
[3] = AUC (0 to infinity) in Sprague-Dawley rat at 20 mg/kg, po measured upto 12 hrs by UPLC-MS/ESI analysis; type: ADME, organism-based; set-up: dose 20 mg/kg, time < 12 hrs, route po; conditions: in vivo
[4] = molecular target: Tubulin; assay: Binding affinity to tubulin (unknown origin) assessed as affinity constant by SPR analysis; type: protein-complex assay, Homo sapiens
[5] = Antiproliferative activity against paclitaxel resistant human A549/TxR cells assessed as inhibition of cell proliferation incubated for 48 hrs by MTT assay; type: functional, cell-based
[6] = AUC(0 to infinity) in Sprague-Dawley rat at 2 mg/kg, iv measured upto 12 hrs by UPLC-MS/ESI analysis; type: ADME, organism-based; set-up: dose 2 mg/kg, time < 12 hrs, route iv; conditions: in vivo
[7] = Toxicity in C57 mouse implanted with mouse B16-F10 cells assessed as pathological changes in liver at 2.5 mg/kg, ip administered every day for 14 days in the presence of NP19 by H&E staining based microscopic analysis; type: organism-based; conditions: in vivo, 336 h, time 14 day
[8] = Oral bioavailability in Sprague-Dawley rat at 20 mg/kg measured upto 12 hrs by UPLC-MS/ESI analysis; type: ADME, organism-based; conditions: in vivo
[9] = test system: B16-F10; assay: Antitumor immunity in C57 mouse implanted with mouse B16-F10 cells assessed as increase in CD3+ CD4+ helper T cells in tumor at 5 mg/kg, ip administered every day for 14 days by flow cytometric analysis (reference value: 0.332%); type: functional; conditions: time 14 day
[10] = test system: B16-F10; assay: Antiproliferative activity against mouse B16-F10 cells assessed as inhibition of cell proliferation incubated for 48 hrs by MTT assay; type: functional, cell-based; conditions: B16-F10, 48 h
[11] = test system: B16-F10; assay: Antitumor activity against mouse B16-F10 cells implanted in C57 mouse assessed as tumor growth inhibition at 2.5 mg/kg, ip administered every day for 14 days in the presence of NP19 relative to control; type: functional; conditions: B16-F10, 336 h, time 14 day, read-out: TGI
[12] = test system: HepG2; assay: Induction of apoptosis in human HepG2 cells assessed as necrotic cells at 0.5 nM incubated for 48 hrs by Annexin V-FITC/PI staining based flow cytometric analysis (reference value: 0.443%); type: functional
[13] = Tmax in Sprague-Dawley rat at 2 mg/kg, iv measured upto 12 hrs by UPLC-MS/ESI analysis; type: ADME, organism-based; conditions: in vivo
[14] = Cmax in Sprague-Dawley rat at 2 mg/kg, iv measured upto 12 hrs by UPLC-MS/ESI analysis; type: ADME, organism-based; set-up: dose 2 mg/kg, time < 12 hrs, route iv; conditions: in vivo
[15] = Toxicity in C57 mouse implanted with mouse B16-F10 cells assessed as body weight loss at 2.5 mg/kg, ip administered every day for 14 days in the presence of NP19; type: organism-based; conditions: in vivo, 336 h, time 14 day
[16] = test system: HepG2; assay: Induction of apoptosis in human HepG2 cells assessed as late apoptotic cells at 5 nM incubated for 48 hrs by Annexin V-FITC/PI staining based flow cytometric analysis (reference value: 4.96 %); type: functional
[17] = Clearance in Sprague-Dawley rat at 2 mg/kg, iv measured upto 12 hrs by UPLC-MS/ESI analysis; type: ADME, organism-based; conditions: in vivo
[18] = MRT(0 to infinity) in Sprague-Dawley rat at 2 mg/kg, iv measured upto 12 hrs by UPLC-MS/ESI analysis; type: ADME, organism-based; conditions: in vivo
[19] = Half-life in Sprague-Dawley rat at 20 mg/kg, po measured upto 12 hrs by UPLC-MS/ESI analysis; type: ADME, organism-based; conditions: in vivo
[20] = Resistance index, ratio of IC50 for antiproliferative activity against paclitaxel resistant human A549/TxR cells to IC50 for antiproliferative activity against parental human A549S cells; type: functional
[21] = Acute toxicity in C57 mouse assessed as survival rate at 40.96 mg/kg, po administered daily for 14 days relative to control; type: organism-based; conditions: in vivo, time 14 day, read-out: Activity
[22] = test system: HepG2; assay: Antimigratory activity in human HepG2 cells assessed as reduction in recovery area at 5 nM incubated for 24 hrs by wound healing assay (reference value: 65.84%); type: functional; set-up: scale not given: the % may be the effect or the level left
[23] = Half-life in Sprague-Dawley rat at 2 mg/kg, iv measured upto 12 hrs by UPLC-MS/ESI analysis; type: ADME, organism-based; conditions: in vivo
[24] = test system: B16-F10; assay: Antitumor activity against mouse B16-F10 cells implanted in C57 mouse assessed as reduction in tumor weight at 2.5 mg/kg, ip administered every day for 14 days in the presence of NP19; type: functional, organism-based; conditions: time 14.0 day
[25] = Toxicity in C57 mouse implanted with mouse B16-F10 cells assessed as pathological changes in kidney at 2.5 mg/kg, ip administered every day for 14 days in the presence of NP19 by H&E staining based microscopic analysis; type: organism-based; conditions: in vivo, 336 h, time 14 day
[26] = AUC(0 to t) in Sprague-Dawley rat at 2 mg/kg, iv measured upto 12 hrs by UPLC-MS/ESI analysis; type: ADME, organism-based; set-up: time < 12 hrs, dose 2 mg/kg, route iv; conditions: in vivo
[27] = test system: B16-F10; assay: Antitumor immunity in C57 mouse implanted with mouse B16-F10 cells assessed as increase in CD3+ CD4+ helper T cells in tumor at 2.5 mg/kg, ip administered every day for 14 days in the presence of NP19 by flow cytometric analysis (reference value: 0.332%); type: functional; conditions: time 14 day
[28] = Acute toxicity in C57 mouse assessed as survival rate at 64 mg/kg, po administered daily for 14 days relative to control; type: organism-based; conditions: in vivo, time 14 day, read-out: Activity
[29] = test system: HepG2; assay: Induction of apoptosis in human HepG2 cells assessed as early apoptotic cells at 5 nM incubated for 48 hrs by Annexin V-FITC/PI staining based flow cytometric analysis (reference value: 7.01 %); type: functional
[30] = test system: HUVEC; assay: Disruption of vasculature in HUVEC cells assessed as interruption of capillary like networks incubated for 6 hrs by phase contrast microscopic analysis; type: functional, cell-based; conditions: Homo sapiens, dose 0.5-5 nM
[31] = test system: HepG2; assay: Induction of apoptosis in human HepG2 cells assessed as early apoptotic cells at 1 nM incubated for 48 hrs by Annexin V-FITC/PI staining based flow cytometric analysis (reference value: 7.01 %); type: functional
[32] = Toxicity in C57 mouse implanted with mouse B16-F10 cells assessed as body weight loss at 5 mg/kg, ip administered every day for 14 days; type: organism-based; conditions: in vivo, 336 h, time 14 day
[33] = test system: A2780S; assay: Antiproliferative activity against parental human A2780S cells assessed as inhibition of cell proliferation incubated for 48 hrs by MTT assay; type: functional, cell-based
[34] = test system: HepG2; assay: Induction of apoptosis in human HepG2 cells assessed as viable cells at 0.5 nM incubated for 48 hrs by Annexin V-FITC/PI staining based flow cytometric analysis (reference value: 87.6%); type: functional; conditions: read-out: Activity
[35] = test system: HepG2; assay: Inhibition of colony formation in human HepG2 cells incubated for 24 hrs by crystal violet staining based analysis; type: functional, cell-based; conditions: dose 0.5-5 nM
[36] = test system: A2780/Taxol; assay: Antiproliferative activity against paclitaxel resistant human A2780/Taxol cells assessed as inhibition of cell proliferation incubated for 48 hrs by MTT assay; type: functional, cell-based
[37] = test system: HepG2; assay: Induction of apoptosis in human HepG2 cells assessed as viable cells at 5 nM incubated for 48 hrs by Annexin V-FITC/PI staining based flow cytometric analysis (reference value: 87.6%); type: functional; conditions: read-out: Activity

## COc1cc(-c2nccc3[nH]c(-c4cccc5c4ccn5C)nc23)cc(OC)c1OC
[1]
  Activity: 0.201%
[2]
  Activity: 32.2%
[3]
  AUC(0-inf): 3380 ng·h/mL
[4]
  Kd: 18300 nM
[5]
  IC50: 15.3 nM
[6]
  AUC(0-inf): 3080 ng·h/mL
[7]
  Activity: Non-Toxic
[8]
  bioavailability: 11%
[9]
  Activity: 0.954%
[10]
  IC50: 2 nM
[11]
  inhibition in vivo at 2.5 mg/kg: 77.8%
[12]
  Activity: 0.428%
[13]
  Tmax: 4.98 min
[14]
  Cmax: 1730 ng/mL
[15]
  Activity: Non-Toxic
[16]
  Activity: 5.74%
[17]
  clearance: 11.2 mL/min/kg
[18]
  MRT inf: 1.86 h
[19]
  half-life: 1.83 h
[20]
  Ratio IC50: 1.8
[21]
  survival at 336 h: 100%
[22]
  Activity: 22.16%
[23]
  half-life: 1.08 h
[24]
  Activity: Active
[25]
  Activity: Non-Toxic
[26]
  AUC(0-t) at 12 h: 3060 ng·h/mL
[27]
  Activity: 2.35%
[28]
  survival at 336 h: 60%
[29]
  Activity: 83.1%
[30]
  Activity: Dose-Dependent Effect
[31]
  Activity: 31.3%
[32]
  Activity: Non-Toxic
[33]
  IC50: 1.6 nM
[34]
  viability at 0.0005 µM: 84.6%
[35]
  inhibition: Dose-Dependent Effect
[36]
  IC50: 5.1 nM
[37]
  viability at 0.005 µM: 11%
